Measurements published in patent US9980928B2, “Hydroxy aliphatic substituted phenyl aminoalkyl ether derivatives” (PROUS INSTITUTE FOR BIOMEDICAL RESEARCH, S.A., priority 2012, dated 2018).
Several values for one entry are separate records, joined by “and”; a condition that tells them apart may be missing. Equal entries are not always repeated. Entries after “also recorded” stand apart in the source; their conditions may differ.

Key:
p-PLCγ1 = assay: Western blot of p-PLCγ1 in mouse brain after i.p. administration; type: in vivo, mice; conditions: 30 mg/kg i.p., 1 hour after administration
Protocol: (§1) Acute biochemical neuronal changes in neurotrophin and synaptic plasticity signaling after the administration of the compounds to be tested may be studied by Western blot assessment of ERK, Akt, phospholipase C (PLC), Trk-B, […] and CAMK II phosphorylation assays in the hippocampus, striatum and cortex at 1 hour post-administration.
(§2) Two groups of animals were used: C57BL control mice and mice treated by i.p. administration of a dose of 30 mg/kg of the compound to be tested diluted in saline solution or control saline (n=6 per group).
(§3) Animals were sacrificed by cervical dislocation at the corresponding time and different brain regions were dissected (frontal cortex, striatum, hippocampus, cerebellum) after […] of having administered the compounds. […] The supernatants were collected and the protein concentration was measured using the Dc protein assay kit (Bio-Rad, Hercules, Calif., USA) read in a 96-well plate. […]
(§4) After primary antibody incubation, membranes were washed with TBS-T and incubated for 1 hour at room temperature with the appropriate horseradish peroxidase-conjugated secondary antibody (1:2000; Promega, Madison, Wis., USA), and the reaction was finally visualized with the Western Blotting Luminol Reagent (Santa Cruz Biotechnology, Santa Cruz, Calif., USA). Western blot replicates were scanned and quantified using a computer-assisted densitometric analysis.

C57BL6 mice = assay: Maximum tolerated doses, 5 days oral administration; type: in vivo; conditions: mouse, doses up to 100 mg/kg/day during 5 days
Source text: An alternative evaluation of the toxicity of the compounds of the present invention may be conducted using the method described in Branch, D. R. Exp Toxicol Pathol 2009, 61(2): 133-6 and Emmenegger, U. et al. Neoplasia 2011, 13(1): 40-8. […]

[1] = molecular target: T1, norepinephrine (NE) transporter (Homo sapiens, UniProt P23975); assay: Norepinephrine transporter binding radioligand inhibition ([3H]-nisoxetine); conditions: concentration 5 μM
T1 construct: expressed in transfected cells; host or cells: CHO cells
Protocol: The norepinephrine (NE) transporter removes NE from the synaptic cleft. The NE transporter terminates the effects of […], enabling its reuse by the presynaptic neuron. The in vitro binding of the compounds of the invention to the NE transporter and the percent inhibition of control-specific binding ([^3H]-nisoxetine in human recombinant CHO cells) is determined following the method described in Pacholczyk et al., (Nature 1991, 350(6316): 350-4.

mice [2] = assay: Mouse formalin assay (analgesic activity); type: in vivo
Protocol: The analgesic activity of the compounds of the present invention is determined making use of the mouse formalin test described in Hunskaar, S. J Neurosci Methods 1985, 14(1): 69-76. The hind paw licking time was measured at 5-minute intervals for 30 minutes following subplantar injection of formalin (0.02 mL, 2%). Statistical analysis using one-way ANOVA followed by Dunnett's test was applied for comparison between the test substance-treated and vehicle control groups. P<0.05 was considered significant.

p-Akt = assay: Western blot of p-Akt in mouse brain after i.p. administration; type: in vivo, mice; conditions: 30 mg/kg i.p., hippocampus, 1 hour after administration; hydrochloride
Protocol: as §1, §2, §3, §4

serotonin transporter = molecular target: T2, serotonin transporter (Homo sapiens, UniProt P31645); assay: Serotonin transporter binding radioligand inhibition ([3H]-imipramine); conditions: concentration 5 μM
T2 construct: expressed in transfected cells; host or cells: CHO cells
Source text: The serotonin transporter removes serotonin from the synaptic deft. The serotonin transporter terminates the effects of […], enabling its reuse by the presynaptic neuron.

uptake of norepinephrine = uptake of norepinephrine (Homo sapiens, UniProt P23975); assay: Uptake inhibition of norepinephrine, cellular assay; type: cell-based; conditions: read-out: Norepinephrine reuptake inhibition (IC50 μM)
Protocol: The effect of the compounds of the present invention as inhibitors of the uptake of norepinephrine and serotonin in cellular assays at concentrations that range from […] to 1 nM is determined following the methods described in Galli, A. et al. J Exp Biol 1995, 198(Pt. 10): 2197-212 and Gu, H. et al. J Biol Chem. 1994, 269(10):7124-30.

mice [3] = assay: Novel object recognition test (acute); type: in vivo
Source text: The novel object recognition task is used to evaluate cognition, particularly memory recognition, in rodent models of CNS disorders. This test is based on the spontaneous tendency of rodents to spend more time exploring a novel object than a familiar one. The choice to explore the novel object reflects the use of learning and memory recognition. The novel object recognition test provides a measure of activity in a novel environment allowing tests for emotional reactivity and also for novel object recognition, a cognitive domain that depends on hippocampal functional integrity. Animals were habituated to the presence of two identical objects (LEGO® pieces) during a single session of 5 minutes (training) and sniffing (exploration of an object was defined as pointing the nose to the object at a distance of <1 cm and/or touching it with the nose). Mice were injected with saline or with the compound to be tested and returned to their home cages. At 24 hours the animals were introduced in the same open field again with the same two items (familiarization), and again exploration in each of them for 5 minutes was registered. One hour later, the mice were retested in the open field for 3 minutes, but this time with one of the “familiar” objects replaced by a new one (test). To analyze cognitive performance, a discrimination index was calculated as the difference in time exploring the novel and familiar object, expressed as the ratio of the total time spent exploring both objects, which made it possible to adjust for any differences in total exploration time. This test is useful for assessing impaired cognitive ability in transgenic strains of mice and evaluating novel chemical entities for their effect on cognition (Zhang, R. J Alzheimers Dis 2012, 31(4): 801-12). […] Neuroplasticity 2007, 26496).

[4] = acute administration, test session

uptake of norepinephrine, sequence (P23975 whole entry): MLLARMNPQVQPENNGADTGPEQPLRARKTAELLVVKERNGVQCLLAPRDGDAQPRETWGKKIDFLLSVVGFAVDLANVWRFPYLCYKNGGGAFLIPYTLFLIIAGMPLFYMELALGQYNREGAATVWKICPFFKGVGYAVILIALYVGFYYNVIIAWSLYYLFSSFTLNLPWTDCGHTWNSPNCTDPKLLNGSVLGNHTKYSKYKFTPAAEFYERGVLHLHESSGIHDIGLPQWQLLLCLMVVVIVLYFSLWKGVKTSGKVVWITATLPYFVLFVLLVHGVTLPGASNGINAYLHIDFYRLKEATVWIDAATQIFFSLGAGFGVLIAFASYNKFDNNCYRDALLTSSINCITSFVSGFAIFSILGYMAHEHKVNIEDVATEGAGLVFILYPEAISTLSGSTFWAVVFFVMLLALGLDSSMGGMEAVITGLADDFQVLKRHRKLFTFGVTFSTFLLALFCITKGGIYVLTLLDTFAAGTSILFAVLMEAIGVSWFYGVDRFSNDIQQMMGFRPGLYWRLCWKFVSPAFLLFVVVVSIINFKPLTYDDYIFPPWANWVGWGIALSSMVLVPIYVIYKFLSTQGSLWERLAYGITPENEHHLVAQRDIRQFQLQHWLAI
T1 sequence (P23975 whole entry): as above
T2 sequence (P31645 whole entry): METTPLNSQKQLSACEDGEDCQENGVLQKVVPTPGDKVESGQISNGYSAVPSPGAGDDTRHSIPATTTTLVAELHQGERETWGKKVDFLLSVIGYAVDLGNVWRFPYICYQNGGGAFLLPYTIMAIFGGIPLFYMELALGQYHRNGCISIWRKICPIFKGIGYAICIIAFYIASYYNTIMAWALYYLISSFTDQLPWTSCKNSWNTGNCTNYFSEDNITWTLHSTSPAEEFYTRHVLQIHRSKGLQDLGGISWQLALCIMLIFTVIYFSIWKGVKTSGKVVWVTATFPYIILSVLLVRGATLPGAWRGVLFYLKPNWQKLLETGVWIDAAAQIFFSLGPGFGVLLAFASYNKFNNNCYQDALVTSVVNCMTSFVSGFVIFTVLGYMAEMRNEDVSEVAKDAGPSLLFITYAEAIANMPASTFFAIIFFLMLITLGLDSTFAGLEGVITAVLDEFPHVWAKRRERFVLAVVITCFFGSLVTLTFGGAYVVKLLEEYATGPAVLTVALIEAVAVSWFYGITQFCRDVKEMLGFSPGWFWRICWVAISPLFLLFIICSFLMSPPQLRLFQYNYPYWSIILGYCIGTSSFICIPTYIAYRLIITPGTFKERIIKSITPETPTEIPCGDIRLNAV

SMILES: CNCCC(Oc1ccc(CCO)cc1)c1ccccc1.Cl (single isomer, unassigned) [Example 2, 2-[4-[3-(Methylamino)-1-phenylpropoxy]phenyl]ethanol hydrochloride]
- p-PLCγ1 change (p-PLCγ1): No significant change
- oral toxicity, toxic effect (C57BL6 mice): did not show any toxic effect
- inhibition at 5 µM [1]: 95%
- analgesic activity following formalin challenge (hind paw licking time) (mice [2]; 3 mg/kg oral): significant analgesic activity
- analgesic activity following formalin challenge (hind paw licking time) (mice [2]; 30 mg/kg intraperitoneal): significant analgesic activity
- analgesic activity following formalin challenge (hind paw licking time) (mice [2]; 30 mg/kg oral): significant analgesic activity
- analgesic activity following formalin challenge (hind paw licking time) (mice [2]; 90 mg/kg oral): significant analgesic activity
- p-Akt levels (Akt phosphorylation) (p-Akt): positive significant increase; also recorded: increase in Akt phosphorylation
- inhibition at 5 µM (serotonin transporter): 82%
- IC50 (uptake of norepinephrine): 0.0864 µM and 0.086 µM
- time familiar object (mice [3]; [4]): 24.4%
- time new object (mice [3]; [4]): 75.5%
- discrimination of the two objects vs saline group (mice [3]; acute conditions): discriminated the two objects better
